Data as given in EP4613273A1, “TREATMENT OF BONE LOSS” (priority 2024, dated 2025).
Where a name gives a salt, the structure may show the parent alone. Read-outs that look alike come from different tables or passages of the source.

How the values were obtained:
[1] = MIV-701/MIV-06404 plasma exposure ratio in dog; format: in vivo; details: single oral administration, exposure ratio (peak area)
Experimental: (§1) Compound Ib besylate salt (referred to as MIV-701 besylate salt) was administered once daily for 14 days to 3 healthy beagle dogs at three different doses: 1 mg/kg, 10 mg/kg and 100 mg/kg.
(§2) Each treatment period can be resumed as follows: • J0 (T+24h): first Compound Ib besylate salt administration, withdrawal of blood samples for pharmacokinetic and plasma CTX-1 assessment (pre-dose and 0.5h, 1h, 2h, 4h, 8h and 24h after drug administration), pre-dose blood samples for hematology and clinical biochemistry (baseline values for safety assessment). • J1 to J12: pre-dose blood samples • J13: last Compound Ib besylate salt administration, withdrawal of plasma samples for pharmacokinetic and plasma CTX-1 assessment (pre-dose and 0.5h, 1h, 2h, 4h, 8h and 24h after drug administration), pre-dose sampling for hematology and clinical biochemistry (baseline values for safety assessment). • J15-J≥19: washout period.
After centrifugation of blood samples plasma aliquots were stored at -20°C. After thawing on ice, 30 µL of plasma were transferred into 1.5 ml microtube containing 270 µL acetonitrile. Microtubes were then vigorously stirred and then centrifuged (12000 rpm, 10 min, 4°C) and the supernatant was transferred in Matrix tube for LC-MS/MS analysis. Calibration curve (9 points, 3 to 30 000 nM) was obtained by spiking plasma samples from naive dogs with appropriate quantities of Compound Ib.
Equipment: LC-MS/MS Acquity I Class-Wevo TQD (Waters®): - Acquity I Class ∘ Column: Waters® Acquity BEH C8, 50*2.1mm, 1.7 µm (40°C) ∘ Mobile phase: • ▪ A: Ammonium Formate 5mM, pH=3.8 • ▪ B: Ammonimuformate 5 mM in CH3CN 5% aqueous, pH=3.8 ∘ Injection volume: 1 µL ∘ Speed: 600 µL/min ∘ Gradient: […]
- Xevo TQD ∘ Source temperature: 150°C ∘ Desolvatation temperature: 600°C ∘ Cone gaz speed: 50L/h ∘ Desolvatation gaz speed: 1200L/h - Analytes MS characteristics

CTX-1 = test: Plasma CTX-1 in client-owned dogs with alveolar bone loss induced by spontaneously developed periodontal disease; format: in vivo
Experimental: The present study was performed on 10 Beagle dogs suffering from alveolar bone loss induced by spontaneously developed periodontal disease. All dogs were treated with MIV-701 besylate salt for minimum 30 day and maximum 90 days, depending on the tolerance at intermediate visits. The product is administrated to the dog by its owner at home, once a day with a meal.
There were two treatment groups: • Group A (5 dogs) with a dose of 25 mg/kg. • Group B (5 dogs) with a dose of 50 mg/kg.
Administration protocol and dosage: MIV-701 besylate salt was administrated to dog once-a-day, at home with a standard meal. It was allowed to administrate the capsule(s) with a small amount of wet food/favorite snack. Opening of the capsule and spilling the product over the food was forbidden.
Treatment was administrated for 90 days. Every 30 days, based on the results of clinical exam, blood parameters and potential occurrence of adverse events suspected to be drug-related, the treatment prolongation for another 30 days, or discontinuation of treatment was decided by the Investigator.
Whole blood sample for CTX-1 analysis was collected at visit V2 (Day 0), visit V3 (Day 30+3 days), Visit V4 (Day 60t 3 days) and Visit V5 (Day 90t 3 days).
Each time, the blood sample was collected after overnight fasting, between 08:00 and 10:00 in the morning. As far as possible the blood sample was taken at the same time each visit. The night before the visit, the Investigational Product was administrated to the dog at 21:00.
The result from visit V2 (Day 0) was used as a baseline value for the efficacy evaluation criteria.
Each time 2 ml of the peripheral whole blood was collected on an anti-coagulant tube (K2EDTA) and gently inverted several times. Next, sample was centrifuged at 1500 G for 10 minutes at room temperature. The obtained plasma was divided into two Eppendorf tubes labelled as "Aliquot 1" and "Aliquot 2". Minimum 0.5 ml was placed in "Aliquot 1" while the rest of plasma was placed in "Aliquot 2". All obtained aliquots were immediately stored at - 20°C on site.
The CTX-1 analysis was performed at the end of the study by Central Laboratory. The shipment of aliquots from site to Central Laboratory was organized by the Monitor and divided into two, separated in time shipments. One with all "Aliquot 1" samples and second one with all "Aliquot 2" samples. The CTX-1 SAMPLE SHIPMENT FORM was joined to the shipment.

[2] = Safety of 14-day repeated oral administration in healthy beagle dogs; format: in vivo
Experimental: as §1
The doses were consecutively administered for 14 days with a >5-day washout period between two dose levels.
as §2

[3] = human healthy volunteers, cited from earlier work; for MIV-701/MIV06404 ratio: single oral administration

For CC(C)C[C@H](NC(=O)c1ccc(-c2csc(N3CCN(C)CC3)n2)cc1)C(=O)N1C[C@H](F)[C@H]2OCC(O)(O)[C@H]21 [MIV-701 besylate salt, N-[(S)-1-((3aS,6S,6aS)-6-Fluoro-S-oxo-hexahydro-furo[3,2-b]pyrrole-4-carbony)-3-methyl-butyl]-4-[2-(4-methyl-piperazin-1-yl)-thiazol-4-yl]-benzamide benzenesulphonate], the MIV-701/MIV06404 ratio ([1]; 1 mg/kg) was 7.0, the MIV-701/MIV06404 ratio ([1]; 10 mg/kg) was 3.6 and the MIV-701/MIV06404 ratio ([1]; 100 mg/kg) was 3.3. The “patients with reduction in plasma CTX-1” value (CTX-1; 10 dogs, Day-90) was “all but one patient experienced reduction”, the “mean % change in CTX-1” value (CTX-1; CTX-1-responders (n=9), Day-90 vs Day-0) was -67%±6% and the “reduction of plasma CTX-1 vs baseline (Day-0)” value (CTX-1; dogs with periodontal disease, 25 and 50 mg/kg/day oral, Day-30 and Day-60, no significant difference between groups) was “comparable reduction”. For the same compound, the “reduction of plasma CTX-1 vs pre-treatment baseline” value (CTX-1; dogs with periodontal disease, Day-90 at 50 mg/kg/day, N=10) was “highly significant reduction”, the tolerance ([2]; oral once daily for 14 days, 1, 10 and 100 mg/kg) was “well tolerated at all doses” and the signs of toxicity ([2]; oral once daily for 14 days, regardless of the dose) was “No obvious signs of toxicity”. For the same compound, the MIV-701/MIV-06404 exposure ratio ([3]; single administrations, dose not stated) was 0.03, the MIV-701/MIV06404 ratio ([3]; 25 mg) was 0.01 and the MIV-701/MIV06404 ratio ([3]; 75 mg) was 0.02. For the same compound, the MIV-701/MIV06404 ratio ([3]; 150 mg) was 0.03 and the MIV-701/MIV06404 ratio ([3]; 300 mg) was 0.04.
